Measured values: patent US7662851B2, “Use of specific cyklolignans” (Axelar AB, priority 2001, dated 2010)
Like-named read-outs stand apart in the source and are kept apart here.

Legend:
[1] = test system: HaCaT cells; test: Cell viability of HaCaT cells (psoriasis model); format: cell-based; conditions: Homo sapiens, 48 h, read-out: Cell viability
Method: Keratinocytes (HaCaT cells) were provided by and tested in collaboration with Professor Mona Bäckdahl, Department of Dermatology, Karolinska Hospital, Stockholm, Sweden. The HaCaT cell line is a spontaneously immortalized human keratinocyte cell line (Boukamp P, et al., J Cell Biol 106: 761-771, 1988), which is frequently used as an experimental model for psoriasis (Wraight, C. J., et al. Nat Biotechnol 18: 521-526, 2000.) HaCaT cells were cultured in Dulbecco's Modified Eagle's Medium containing 10% fetal bovine serum, glutamine, benzylpenicillin and streptomycin.
Cell proliferation kit II (Roche Inc.) is based on colorimetric change of the yellow tetrazolium salt XTT in orange formazan dye by the respiratory chain of viable cells (Roehm, N W, et al., J Immunol Methods 142:257-265, 1991). Cells seeded at a concentration of 5000/well in 100 μl medium in a 96-well plate were treated with different drugs in the given concentration. After 24 or 48 h the cells were incubated, according to the manufacturer's protocol, with XTT labelling mixture. After 4 h the formazan dye is quantified using a scanning multiwell spectrophotometer with a 495-nm filter. The absorbance is directly correlated with the number of viable cells. The standard absorbance curve was drawn by means of untreated cells seeded at a concentration of from 1000 to 10 000 cells/well with an increasing rate of 1000 cells/well. […]

[2] = Systemic toxicity, daily intraperitoneal injection in nude mice; conditions: for Signs of disease: up to 5 days
Method: Four to five-week old pathogen-free nude mice (nu/nu) were used and housed within plastic isolators in a sterile facility. […] Experimental treatments with podophyllotoxin, deoxypodophyllotoxin or picropodophyllin were performed by daily intraperitoneal injections of the compound in 100 μl volume of solvent, composed of a mixture of DMSO and physiological saline (8:2). Control mice were treated with the solvent. 3-6 animals were treated in each group. Animals were monitored three times a week for signs of disease and tumor growth. Tumor mass was estimated using the formula (d^2×D)/2, where d and D represent the small and large diameters of the tumor, respectively. The mice were carefully observed for presence of side effects and were sacrificed at the end of the experiments for histological analysis of the lesions. All experiments were performed according to the ethical guidelines for laboratory animal use, provided by institutional ethical committee.
In the next experiment we analyzed systemic effects of the drugs by injecting 100 μl intraperitoneally of each compound daily over 5 days. Two doses were injected (7 or 28 mg/kg/d) and 3-6 mice were used for each drug and dose. The mice were checked carefully daily for signs of discomfort, diseases and weight loss.

[3] = test system: MCF-7 breast cancer cell line; test: Cell viability (XTT), MCF-7; format: cell-based; conditions: Homo sapiens, read-out: EC50 for cell viability
Method: Cell proliferation kit II (Roche Inc.) is based on colorimetric change of the yellow tetrazolium salt XTT in orange formazan dye by the respiratory chain of viable cells (Roehm, N W, et al., J Immunol Methods 142:257-265, 1991). Cells seeded at a concentration of 5000/well in 100 μl medium in a 96-well plate were treated with different drugs in the given concentration. After 24 or 48 h the cells were incubated, according to the manufacturer's protocol, with XTT labelling mixture. After 4 h the formazan dye is quantified using a scanning multiwell spectrophotometer with a 495-nm filter. The absorbance is directly correlated with the number of viable cells. The standard absorbance curve was drawn by means of untreated cells seeded at a concentration of from 1000 to 10 000 cells/well with an increasing rate of 1000 cells/well. All standards and experiments were performed in triplicates.
12 different types of cell lines were seeded in 96-well plates (medium volume in a well was 100 μl), at a concentration of 10,000 cells/cm^2 in Minimal Essential Medium supplemented with fetal calf serum. When the cells had reached a concentration of 65,000 cells/cm^2, they were treated with different doses of podophyllotoxin and picropodophyllin for 48 h. Cell viability was then assayed (see above). […]

[4] = target: T1, IR tyrosine kinase (Homo sapiens, UniProt P06213); test: In vitro tyrosine kinase assay: substrate phosphorylation by IR, cell-free; format: biochemical; conditions: FIG. 3
T1 construct: Immunoprecipitated IR from HepG2; endogenous in cells; host or cells: HepG2 hepatoma cells (immunoprecipitate)
T1 sequence (P06213 28-1382): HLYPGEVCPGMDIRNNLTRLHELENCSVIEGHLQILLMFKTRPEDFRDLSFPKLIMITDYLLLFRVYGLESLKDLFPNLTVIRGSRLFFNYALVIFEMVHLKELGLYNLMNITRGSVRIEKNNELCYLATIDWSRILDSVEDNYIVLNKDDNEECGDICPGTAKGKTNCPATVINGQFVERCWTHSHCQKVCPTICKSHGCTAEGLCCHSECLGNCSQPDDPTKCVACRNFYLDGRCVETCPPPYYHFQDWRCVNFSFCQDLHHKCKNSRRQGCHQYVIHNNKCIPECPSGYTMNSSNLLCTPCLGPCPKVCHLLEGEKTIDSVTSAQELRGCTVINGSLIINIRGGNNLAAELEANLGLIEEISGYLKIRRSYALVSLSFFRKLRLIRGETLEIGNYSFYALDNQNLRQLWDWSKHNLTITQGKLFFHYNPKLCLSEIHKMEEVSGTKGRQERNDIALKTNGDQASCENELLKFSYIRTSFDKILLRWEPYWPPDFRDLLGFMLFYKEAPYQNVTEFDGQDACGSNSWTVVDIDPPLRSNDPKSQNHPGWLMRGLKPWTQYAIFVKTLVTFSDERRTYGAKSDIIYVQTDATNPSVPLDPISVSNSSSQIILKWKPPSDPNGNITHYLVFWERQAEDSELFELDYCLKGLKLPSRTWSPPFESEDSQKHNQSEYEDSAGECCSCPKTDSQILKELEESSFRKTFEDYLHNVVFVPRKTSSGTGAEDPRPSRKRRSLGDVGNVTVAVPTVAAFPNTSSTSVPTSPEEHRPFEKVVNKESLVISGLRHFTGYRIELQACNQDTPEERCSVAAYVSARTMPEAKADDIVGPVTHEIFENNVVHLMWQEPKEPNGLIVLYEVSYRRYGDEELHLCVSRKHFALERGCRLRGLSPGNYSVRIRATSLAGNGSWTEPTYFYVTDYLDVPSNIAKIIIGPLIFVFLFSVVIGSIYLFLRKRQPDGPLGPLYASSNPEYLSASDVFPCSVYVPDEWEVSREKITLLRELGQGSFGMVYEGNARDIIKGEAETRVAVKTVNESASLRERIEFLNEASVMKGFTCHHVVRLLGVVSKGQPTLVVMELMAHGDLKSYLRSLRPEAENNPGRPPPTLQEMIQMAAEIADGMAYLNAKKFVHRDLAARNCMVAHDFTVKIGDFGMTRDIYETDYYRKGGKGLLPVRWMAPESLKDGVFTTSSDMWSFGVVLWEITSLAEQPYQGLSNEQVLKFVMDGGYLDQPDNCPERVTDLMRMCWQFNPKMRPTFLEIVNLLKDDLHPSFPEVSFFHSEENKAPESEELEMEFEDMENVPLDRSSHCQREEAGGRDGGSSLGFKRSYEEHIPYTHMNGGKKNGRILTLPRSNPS
Method: IGF-1R-catalyzed substrate phosphorylation of polyTyrGlu (pTG) was performed essentially as previously described [Parrizas M., et al., ibid., and Blum G., et al., ibid.]. Immunoprecipitated IR from HepG2, IGF-1R from P6 cell extract and immunodepleted supernatant to assay non-IGF-1R tyrosine kinases. The phosphorylated polymer substrate was probed with a purified phosphotyrosine specific monoclonal antibody conjugated to horseradish peroxidase (HARP). Color was developed with HRP chromogenic substrate o-phenylene-diamine dihydrochloride (OPD). The color was quantitated by spectrophotometry (ELISA reader) and reflects the relative amount of tyrosine kinase. The precipitate was immunoblotted with anti-bodies to IGF-1R and IR to verify the presence of the receptor. Serial dilutions were used to assay the optimal conditions with respect to the amount of IGF-1R and IR. The signal was linear for 30 minutes and was a function of IGF-1R concentration up to 75 ng/well. […] After spectrophotometry the IC50 values of inhibitors were determined using the Regression function of Statistica program.
Therefore we isolated the receptor and determined the effects of picropodophyllin on IGF-1R catalyzed substrate tyrosine phosphorylation and IGF-1R autophosphorylation in-vitro.

SMILES: COc1cc([C@@H]2c3cc4c(cc3[C@H](O)[C@H]3COC(=O)[C@H]23)OCO4)cc(OC)c1OC [Podophyllotoxin, podophyllotoxin]
- viability at 0.05 µM ([1]; HaCaT): 30%
- Surviving mice/Investigated mice ([2]; 7 mg/kg/d i.p., 1 d): 3/3
- Surviving mice/Investigated mice ([2]; 7 mg/kg/d i.p., 2 d): 1/3
- Surviving mice/Investigated mice ([2]; 7 mg/kg/d i.p., 3 d): 0/3
- Surviving mice/Investigated mice ([2]; 28 mg/kg/d i.p., 1 d): 2/6
- Surviving mice/Investigated mice ([2]; 28 mg/kg/d i.p., 2 d): 0/6
- Animals dead within 2 days ([2]; high dose (28 mg/kg/d) i.p.): 100%
- Animals dead within 2 days ([2]; low dose (7 mg/kg/d) i.p.): 67%
- EC50 ([3]; MCF7, 48 h): 70 nM

SMILES: COc1cc([C@@H]2c3cc4c(cc3[C@H](O)[C@H]3COC(=O)[C@@H]23)OCO4)cc(OC)c1OC [Picropodophyllin, picropodophyllin]
- Interference with substrate phosphorylation of IR tyrosine kinase [4]: failed to interfere
- viability at 0.05 µM ([1]; HaCaT cells, 0.05 μM, control 100): 35%
- Surviving mice/Investigated mice ([2]; 7 mg/kg/d i.p., 1 d): 3/3
- Surviving mice/Investigated mice ([2]; 7 mg/kg/d i.p., 2 d): 3/3
- Surviving mice/Investigated mice ([2]; 7 mg/kg/d i.p., 3 d): 3/3
- Surviving mice/Investigated mice ([2]; 7 mg/kg/d i.p., 4 d): 3/3
- Surviving mice/Investigated mice ([2]; 7 mg/kg/d i.p., 5 d): 3/3
- Surviving mice/Investigated mice ([2]; 28 mg/kg/d i.p., 1 d): 6/6
- Surviving mice/Investigated mice ([2]; 28 mg/kg/d i.p., 2 d): 6/6
- Surviving mice/Investigated mice ([2]; 28 mg/kg/d i.p., 3 d): 6/6
- Surviving mice/Investigated mice ([2]; 28 mg/kg/d i.p., 4 d): 6/6
- Surviving mice/Investigated mice ([2]; 28 mg/kg/d i.p., 5 d): 6/6
- Signs of disease ([2]; high dose (28 mg/kg/d) i.p. daily): did not exhibit any evidence of disease
- Signs of disease ([2]; low dose (7 mg/kg/d) i.p. daily): did not exhibit any evidence of disease
- EC50 ([3]; MCF7, MCF-7, 48 h): 90 nM
